Data as given in US10845367B2, “Modified multispanning membrane polypeptides and methods of use thereof to screen therapeutic agents” (Abilita Bio, Inc., priority 2016, dated 2020).
Values after ≈ are worked out from the molar mass of the structure shown. Read-outs that look alike come from different tables or passages of the source.

Assays:
[1] = test system: E. coli strains (e.g. BL21 or DH10beta); test: Growth of E. coli on LB medium with varying antibiotic concentrations (MIC); type: cell-based; conditions: for Antibiotic concentration to which resistance is conferred: E. coli transformed with mutated GPR55 clones; for MIC: Escherichia coli
WT-GPR55 = biological target: T1, WT-GPR55 (Homo sapiens, UniProt Q9Y2T6); test: Genetic immunization of mice with protein boost, FACS analysis of sera on transfected cells; type: in vivo; conditions: C57BL6 mice; 50 μg cDNA in NanoTaxi, 2 DNA boosts, 1 boost with 50 μg purified protein in IFA; polyclonal sera by FACS
T1 construct: expressed in transfected cells
Procedure: The genetic immunization work was performed using NanoTaxi® at In-Cell-Art (Nantes, France). NanoTaxi® is a DNA delivery system optimized for genetic immunization where the delivered genetic material is formulated with a mixture of different chemical families of lipids and polymers.
The cDNA corresponding to the EMP012 of the GPR55 receptor was cloned into a pCMV-based vector and cell surface expression was confirmed via transient transfection of HEK293T and HeLa cells prior to immunogen administration.
C57BL6 mice were immunized with 50 μg EMP012 cDNA construct formulated into the NanoTaxi® for the primary challenge, followed by 2 boosts of 50 μg using the same NanoTaxi®-based formulation at two-weekly intervals, followed by 1 boost using 50 μg purified EMP012 protein in IFA adjuvant. In some instances, boosting was carried out for the in-vivo affinity maturation by somatic hypermutation of the primary antibody response. The level of immune response was assessed at regular intervals by FACS analysis using Hela cells transfected with an unrelated GPCR (left panel) or WT-GPR55 (right panel) (FIG. 7).

[2] = E. coli containing a plasmid encoding wild-type human GPR55
[3] = E. coli expressing certain constructs containing NTSR1 (rat, aa 43-424), read-out: Apparent MIC

T1 sequence (Q9Y2T6 with tags, fused parts or gaps): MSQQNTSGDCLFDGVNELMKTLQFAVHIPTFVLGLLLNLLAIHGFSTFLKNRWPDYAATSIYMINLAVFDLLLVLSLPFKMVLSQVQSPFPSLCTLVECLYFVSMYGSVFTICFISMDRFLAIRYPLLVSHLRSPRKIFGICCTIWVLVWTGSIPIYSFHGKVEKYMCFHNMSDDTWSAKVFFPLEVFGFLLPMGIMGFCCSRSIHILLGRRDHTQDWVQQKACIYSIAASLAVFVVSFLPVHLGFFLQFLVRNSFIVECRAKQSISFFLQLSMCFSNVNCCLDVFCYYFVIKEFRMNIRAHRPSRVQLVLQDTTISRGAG

Molecule	Antibiotic concentration to which resistance is conferred [1] [mg/L]	MIC [1, 2] [µg/mL]	MIC [1, 3] [µg/mL]	MIC ([1]; untransformed cells, LB medium) [µg/mL]	Immune response against WT-GPR55 (WT-GPR55)
CC1(C)S[C@@H]2[C@H](NC(=O)C(C(=O)O)c3ccccc3)C(=O)N2[C@H]1C(=O)O (some centres unmarked) [carbenicillin]	> 80	~40 (≈ 106 µM)	> 75		
NC[C@H]1O[C@H](O[C@H]2[C@H](O)[C@@H](O[C@H]3O[C@H](CO)[C@@H](O)[C@H](N)[C@H]3O)[C@H](N)C[C@@H]2N)[C@H](O)[C@@H](O)[C@@H]1O [kanamycin]	> 50	~25 (≈ 51.6 µM)	> 50	~10 (≈ 20.6 µM)	
EMP012: Modified GPR55 receptor (Enabled Membrane Protein), SEQ ID NO: 2, mutated relative to wild-type GPR55; used as cDNA and purified protein (protein, listed as Homo sapiens) MSQQNTSGNCLFDGMNELMKTLQFAVHIPTFVLGLLLNLLAIHGFSTFLKNRWPDYAATSIYMINLAVFDLLLVLSLPFKIVLSQVQSPFPSLCTLVECLYFVSMYGSVFTICFISMDRFLAIRYPLLVSHLRSPRKIFGICCTIWVLVWTGSIPIYSFHGKVEKYMCFHNMSDDTWSAKVFFPLEVFGFLLPMGIMGFCCSRSIHILLGRRDHTQDWVQQKACIYSIAASLAVFVVSFLPVHLGFFLQFLVRNSFIVECRAKQSISFFLQLSKCFSNVNCCLDVFCYYFVIKEFRMNIRAHRPSRVQLVLQDTTISRGAG					robust and specific immune response
